Test results reported in article PMC11093748, “De novo identification of CD4^+ T cell epitopes” (Nature Methods, 2024).

Experiments:
Assay in all cases: I-Ag7 SABR-II library screen, enrichment score
Assay type in all cases: cell-based, mouse
TCR37 = conditions: for Enrichment score: TCR_Mean minus PREDICTED_TCR (slope 0.904637, intercept 2.34021e-5 on LIB_Mean), TCR 37, run PZ57
Text: (§1) We then asked whether SABR-IIs could be used to present a library of epitopes for CD4^+ T cell antigen discovery. To that end, we constructed a SABR-II library to present epitopes derived from pancreatic islets in I-Ag7 by curating a list of 4,075 published epitopes from the Immune Epitope Database (iedb.org)[50] and a study by Wan et al.[51] (Supplementary Table 1). Of note, this defined library consisted of unmodified epitopes from endogenous proteins, synthetic mimotopes, deamidated epitopes and hybrid insulin peptides (HIPs) that arise from post-translational fusion and are not genetically encoded in vivo[52],[53]. The epitope library was inserted into the I-Ag7 SABR-II backbone through pooled oligonucleotide synthesis, amplification and ligation-free cloning (Extended Data Fig. 3a). The I-Ag7 SABR-II-library was then expressed in NFAT–GFP Jurkat cells. We confirmed that after sequencing, the library accounted for a mean of 708 reads per epitope (Extended Data Fig. 3b). As a proof of concept, we performed co-incubation assays with Jurkat cells expressing the BDC2.5 TCR and sorted the top 1–2% of GFP^+CD69^+ cells at a rate of ~20 min per replicate with three replicates per TCR. We extracted the genomic DNA from sorted cells, amplified the SABR portion of the integrated proviruses and subjected the amplicons to Illumina sequencing (Extended Data Fig. 3c,d). The 1–2% sort gate represents >50-fold enrichment of cognate epitopes with minimal loss of signal (Extended Data Fig. 3e–h). Sequence reads were aligned to the I-Ag7 SABR-II backbone and the corresponding epitopes were scored based on their read counts. For each TCR under investigation, an enrichment score (ES) was determined for all the epitopes in a library. In each experiment, three replicates of a sort with TCR-expressing Jurkat cells were performed and reads were counted post-sequencing. In addition, three replicates of the unsorted library were also sequenced. A linear regression model was built using the unsorted library counts and used to determine the expected abundance of each epitope in the library. The ES was calculated based on the difference between the measured and the expected abundance of each epitope on a per-TCR basis (Fig. 1e). Based on ES values, two quantitative thresholds were used to determine putative cognate epitopes of a given TCR. A high-confidence zone containing clear outliers with a high ES and a low-confidence zone containing weak outliers with a moderately high ES were determined (Fig. 1e). This two-tiered strategy was used to call putative hits from screens. All the top-scoring epitopes for the BDC2.5 TCR were known BDC2.5 ligands containing the WXRM(D/E) motif (Fig. 1f,g, enriched ligands in red), a well-characterized trait of the BDC2.5 TCR[43],[54]–[56]. Across several independent experiments there was limited variation in ES values for the same TCRs and several epitopes fell into high- or low-confidence zones consistently (Extended Data Fig. 4a). Using a different TCR that was isolated from NOD mice, 4-8Ins[57], which recognized the InsB9:23 epitope ([…]), we observed a similar pattern of ES for cognate epitopes (Extended Data Fig. 4b).
(§2) We performed systematic screening of the cloned TCRs against the I-Ag7 SABR-II library. Several TCRs along with a positive control (such as BDC2.5 or 4-8Ins) were screened individually against the library for each sort (Extended Data Fig. 6a and Supplementary Table 4). High- and low-confidence ES zones for each screened TCR were defined by the ES values of the control TCR’s cognate epitopes. For all putative cognate epitopes, single SABR-IIs were constructed, expressed in NFAT–GFP Jurkat cells and used for co-incubation with the corresponding TCRs. Co-incubation assays that yielded a GFP signal higher than that obtained in assays with no TCR were determined to be positive and the epitopes deemed true cognate ligands (Extended Data Fig. 6b,c). […]

TCR4 = conditions: for Enrichment score: sheet TCR4-PZ44, ES = TCRObserved - TCRPredicted, TCRPredicted = LIBObserved x SLOPE + INTERCEPT, SLOPE 0.903208, INTERCEPT 2.37527e-5
Text: as §1, §2

TCR11 = conditions: for Enrichment score: TCR11, TCR_Mean minus PREDICTED_TCR (from LIB_Mean, SLOPE 0.869084, INTERCEPT 3.21267e-5), PZ51
Text: as §1, §2

TCR24 = conditions: for Enrichment score: TCR_Mean minus PREDICTED_TCR (slope 0.96363, intercept 8.9252e-6 on LIB_Mean), TCR 24, run PZ98
Text: as §1, §2

TCR30 = conditions: for Enrichment score: TCR_Mean minus PREDICTED_TCR (slope 0.934363, intercept 1.61073e-5 on LIB_Mean), TCR 30, run PZ98
Text: as §1, §2

TCR15 = conditions: for Enrichment score: TCR15, TCR_Mean minus PREDICTED_TCR (from LIB_Mean, SLOPE 0.918454, INTERCEPT 2.00113e-5), PZ37
Text: as §1, §2

Row | Sequence | Enrichment score (TCR37) | Enrichment score (TCR4) | Enrichment score (TCR11) | Enrichment score (TCR24) | Enrichment score (TCR30) | Enrichment score (TCR15) | recognition by TCR (screen hit, validated by single SABR-II co-incubation) (TCR4; high-confidence zone) | recognition by TCR (screen hit, validated by single SABR-II co-incubation) (TCR15; high-confidence zone) | recognition by TCR (screen hit, validated by single SABR-II co-incubation) (TCR37; high-confidence zone) | recognition by TCR (screen hit, validated by single SABR-II co-incubation) (TCR11; low-confidence hit) | recognition by TCR (screen hit, validated by single SABR-II co-incubation) (TCR24; high-confidence zone) | recognition by TCR (screen hit, validated by single SABR-II co-incubation) (TCR30; low-confidence hit)
1 | AAVEEGIVAGGGVTLL | -4.879e-5 | 3.881e-5 | 9.192e-5 | 0.0001615 | -2.605e-6 | -0.000165 | – | – | – | – | – | –
2 | AEKVRNLPAGHGLNAQ | 0.0002899 | -5.549e-7 | 0.0002492 | 0.0001713 | 0.0001445 | 0.000168 | – | – | – | – | – | –
3 | AGGVAVIKAGAATEV | -0.0001031 | 2.046e-5 | -2.692e-5 | -1.094e-5 | -2.42e-5 | 2.956e-5 | – | – | – | – | – | –
4 | AKAAVEEGIVAGGGV | -6.503e-5 | -0.0001441 | 0.0001401 | 2.968e-5 | 8.616e-5 | 1.733e-5 | – | – | – | – | – | –
5 | ALVREGLRNVAAGANP | -2.34e-5 | -2.375e-5 | -3.213e-5 | -8.9252e-6 | -1.611e-5 | -2.061e-5 | – | – | – | – | – | –
6 | LQTLALNAARDP | – | – | – | – | – | – | recognized | recognized | – | – | – | –
7 | SHLVEALYLVCGERG | – | – | – | – | – | – | – | – | recognized | confirmation of reactivity | recognized | confirmation of reactivity
